# Laboratory results: publication PMC11271178, “Effect of Added Salt on the RAFT Polymerization of 2-Hydroxyethyl Methacrylate in Aqueous Media” (Macromolecules, 2024)
# Columns and labels:
# [1] = cited from earlier work
# [2] = Aqueous solubility of HEMA monomer vs added NaCl at 70 °C (gravimetric titration, visual end point); assay type: physicochemical
# Method: Deionized water (2.0 g) was added to a pre-weighed vial equipped with a magnetic stir bar. This vial was placed in an oil bath set at 70 °C and allowed to equilibrate for 20 min. HEMA was added to a second pre-weighed vial and then added dropwise to the first vial at 70 °C. After the addition of each drop of HEMA, the aqueous HEMA mixture was stirred at 70 °C for 1 min. Visual inspection was used to judge the point at which the HEMA monomer droplets were no longer fully dissolved. […] This experiment was repeated with the deionized water being replaced with a series of aqueous salt solutions (up to 3 M NaCl).
# However, its aqueous solubility strongly depends on the presence of salt. For example, the digital photograph shown in Figure 1 (blue frame) clearly illustrates the transition from fully soluble HEMA in 0–0.6 M NaCl to (partially) immiscible HEMA in the presence of 1.5 M NaCl. This change in physical appearance is used as the “end point” for a series of gravimetric titrations to determine the aqueous solubility of HEMA in various salt solutions at 70 °C. For example, HEMA solubility is reduced from 1305 g dm^–3 in 0.75 M NaCl to just 93 g dm^–3 in 3 M NaCl (see Figure 1). In principle, this should be sufficient for the mode of polymerization to switch from an aqueous dispersion polymerization to an aqueous emulsion polymerization. Moreover, added salt was also expected to lower the critical DP at which PHEMA chains become water-insoluble. Combining the salt-tunable aqueous solubility of HEMA with a suitable salt-tolerant precursor such as PMPC should facilitate a systematic study of the effect of added salt on the polymerization kinetics and copolymer morphology.
smiles,measurement,setting,value
"C=C(C)C(=O)OCC(F)(F)F [2,2,2-trifluoroethyl methacrylate]",aqueous solubility of monomer,[1],≤ 1 g dm^–3
C=C(C)C(=O)OCc1ccccc1 [benzyl methacrylate],aqueous solubility of monomer,[1],≤ 1 g dm^–3
"C=C(C)C(=O)OCCO [HEMA, 2-hydroxyethyl methacrylate]",aqueous solubility of HEMA,"[2]; 0.75 M NaCl, 70 °C",1305 g dm^–3
same,aqueous solubility of HEMA,"[2]; 3 M NaCl, 70 °C",93 g dm^–3
same,solubility at 1 min,"[2]; aqueous 1.5 M NaCl solution, water, 1.5 M NaCl, 70 °C, homogeneous at lower, emulsion at higher concentration, read-out: aqueous solubility of HEMA (homogeneous mixture vs emulsion)",≥ 171 mg/mL
same,miscibility of HEMA with water,[2]; no added salt,fully miscible with water in all proportions
same,miscibility of HEMA with water,"[2]; up to 0.6 M NaCl, 70 °C",water-miscible in all proportions
C=Cc1ccccc1 [styrene],aqueous solubility of monomer,[1],≤ 1 g dm^–3
